We go through seven compounds from publication PMC9108036 (Biomedicine & Pharmacotherapy, 2022).

This test has as its system lentiviral pseudovirus with SARS-CoV-2 spike D614G. It counts as cell-based.

In general, IC50 refers to the point on the concentration scale where inhibition reaches its midpoint. In turn, `CCCCC[C@H](O)/C=C/[C@H]1[C@H](O)CC(=O)[C@@H]1CCCCCCC(=O)O` [Alprostadil] had a concentration for half-maximal inhibition (IC50) of 7.42 µM.

With `CN(C)C(=O)COC(=O)Cc1ccc(OC(=O)c2ccc(NC(=N)N)cc2)cc1` [Camostat], the “inhibition of virus entry (in words)” value is on record as “failed to inhibit virus entry sufficiently” and the “maximum response (inhibition)” value was determined as 50%.

Take `CN(C)CCCN1c2ccccc2Sc2ccc(Cl)cc21` [Chlorpromazine]: 9.63 µM corresponded to half-maximal inhibition (IC50).

In turn, `Nc1nc(Cl)nc2c1ncn2[C@H]1C[C@H](O)[C@@H](CO)O1` [Cladribine] returned an IC50 of 7.74 µM.

For the compound `CC(=O)O[C@@]12CO[C@@H]1C[C@H](O)[C@@]1(C)C(=O)[C@H](O)C3=C(C)[C@@H](OC(=O)[C@H](O)[C@@H](NC(=O)OC(C)(C)C)c4ccccc4)C[C@@](O)([C@@H](OC(=O)c4ccccc4)[C@H]21)C3(C)C` [Docetaxel], the IC50 was less than 0.08 µM.

As for `O=c1[nH]cc(F)c(=O)[nH]1` [Fluorouracil], the IC50 came to 7.01 µM.

Take `N=C(N)c1ccc2cc(OC(=O)c3ccc(N=C(N)N)cc3)ccc2c1` [Nafamostat]: the “maximum response (inhibition)” value is 50%.
